Drawing on US5169838A, “Benzopyranone-β-D-thioxylosides and their use in therapy” (Fournier Industrie et Sante, priority 1989, dated 1992), this text covers inhibition in vivo for 11 compounds.

This experiment is described as follows: venous thrombosis (venous stasis under hypercoagulation with activated factor X, Wessler technique). Particulars: po, administered orally, rat, thrombosis induced 4 hours after treatment, thrombus weighed. The experiment is classed as in vivo, male Wistar rats. As to the method:
The study is performed on unfasted male Wistar rats weighing 250 to 280 g, divided up into groups of 10 animals each. The test products are administered orally as a suspension in PEG 400. A thrombosis is induced 4 hours after this treatment and the thrombus formed is removed and weighed.
`CCc1cc(=O)c2ccc(O[C@@H]3SC[C@@H](OC(C)=O)[C@H](OC(C)=O)[C@H]3OC(C)=O)cc2o1` [Example 21a, 2-ethyl-4-oxo-4H-1-benzopyran-7-yl 2,3,4-tri-O-acetyl-5-thio-β-D-xylopyranoside]: 3 mg/kg produced 42% inhibition in vivo.

In turn, `Cc1oc2cc(O[C@@H]3SC[C@@H](O)[C@H](O)[C@H]3O)ccc2c(=O)c1C` [Example 22, 2,3-dimethyl-4-oxo-4H-1-benzopyran-7-yl 5-thio-β-D-xylopyranoside] returned an inhibition in vivo at 3 mg/kg of 36%.

In turn, `CC(=O)O[C@@H]1[C@@H](OC(C)=O)[C@H](OC(C)=O)CS[C@H]1Oc1ccc2c(=O)c(C)c(C)oc2c1` [Example 22a, 2,3-dimethyl-4-oxo-4H-1-benzopyran-7-yl 2,3,4-tri-O-acetyl-5-thio-β-D-xylopyranoside] returned an inhibition in vivo at 3 mg/kg of 66%.

With `Cc1cc(=O)c2ccc(S[C@@H]3SC[C@@H](O)[C@H](O)[C@H]3O)cc2o1` [Example 23, 2-methyl-4-oxo-4H-1-benzopyran-7-yl 1,5-dithio-β-D-xylopyranoside], at 3 mg/kg the inhibition in vivo was 26%.

The compound `Cc1cc(=O)c2cc(O[C@@H]3SC[C@@H](O)[C@H](O)[C@H]3O)ccc2o1` [Example 24, 2-methyl-4-oxo-4H-1-benzopyran-6-yl 5-thio-β-D-xylopyranoside] registered an inhibition in vivo at 3 mg/kg of 36%.

Turning to `O=c1cc(-c2ccccc2)oc2cc(O[C@@H]3SC[C@@H](O)[C@H](O)[C@H]3O)ccc12` [Example 25, 4-oxo-2-phenyl-4H-1-benzopyran-7-yl 5-thio-β-D-xylopyranoside], 3 mg/kg produced 28% inhibition in vivo.

On to `Cc1oc2cc(S[C@@H]3SC[C@@H](O)[C@H](O)[C@H]3O)ccc2c(=O)c1C` [Example 26, 2,3-dimethyl-4-oxo-4H-1-benzopyran-7-yl 1,5-dithio-β-D-xylopyranoside], for which the inhibition in vivo at 3 mg/kg amounted to 27%.

`CCc1cc(=O)c2ccc(S[C@@H]3SC[C@@H](O)[C@H](O)[C@H]3O)cc2o1` [Example 27, 2-ethyl-4-oxo-4H-1-benzopyran-7-yl 1,5-dithio-β-D-xylopyranoside]: at 3 mg/kg the inhibition in vivo was 26%.

The compound `CCc1cc(=O)c2ccc(S[C@@H]3SC[C@@H](OC(C)=O)[C@H](OC(C)=O)[C@H]3OC(C)=O)cc2o1` [Example 27a, 2-ethyl-4-oxo-4H-1-benzopyran-7-yl 2,3,4-tri-O-acetyl-1,5-dithio-β-D-xylopyranoside] returned an inhibition in vivo at 3 mg/kg of 23%.

As for `Cc1oc2cc(O[C@@H]3SC[C@@H](O)[C@H](O)[C@H]3O)ccc2c(=O)c1Br` [Example 28, 3-bromo-2-methyl-4-oxo-4H-1-benzopyran-7-yl 5-thio-β-D-xylopyranoside], the inhibition in vivo at 3 mg/kg stood at 49%.

`CC(=O)O[C@@H]1[C@@H](OC(C)=O)[C@H](OC(C)=O)CS[C@H]1Oc1ccc2c(=O)c(Br)c(C)oc2c1` [Example 28a, 3-bromo-2-methyl-4-oxo-4H-1-benzopyran-7-yl 2,3,4-tri-O-acetyl-5-thio-β-D-xylopyranoside] displayed an inhibition in vivo at 3 mg/kg of 25%.

In general, inhibition in vivo refers to the share of the control response that was lost under treatment. Read a high inhibition in vivo as a response far below the control.
